This is an account of results in patent US10919895B2, “Toll-like receptor 7 (TLR7) agonists having a pyridine or pyrazine moiety, conjugates thereof, and methods and uses therefor” (BRISTOL-MYERS SQUIBB COMPANY, priority 2017, dated 2021).

Experiment [1] concerns the target human TLR7 (Homo sapiens (Human), UniProt Q9NYK1). The experiment in a line: HEK-Blue TLR7 reporter assay for TLR7 agonist activity. The format is cell-based. The settings on record: HEK-Blue TLR7 cells, SEAP reporter, 18 h treatment; read-out: TLR7 Agonism (EC50). On the procedure: This example describes a method for assaying TLR7 agonist activity of the compounds disclosed in this specification.
HEK-Blue™ TLR7 cells were added to each well of a 384-well tissue-culture plate (15,000 cells per well) and incubated 16-18 h at 37° C., 5% CO2. Compounds (100 nl) were dispensed into wells containing the HEK-Blue™ TLR cells and the treated cells were incubated at 37° C., 5% CO2. After 18 h treatment ten microliters of freshly-prepared Quanti-Blue™ reagent (Invivogen) was added to each well, incubated for 30 min (37° C., 5% CO2) and SEAP levels measured using an Envision plate reader (OD=620 nm).

Experiment [2] has as its system interleukin 6 (IL-6). Description: IL-6 induction in human whole blood (AlphaLISA). As to conditions: 37° C., 20 h. Type of experiment: cell-based. The protocol:
This example describes a method for assaying interleukin 6 induction by compounds disclosed in this specification.
Compounds diluted in DMSO were transferred to individual wells of a Matrix Technologies clear, V-bottom 384-well plate using ECHO acoustic liquid handling technology (25 nL per well). Human whole-blood samples (25 uL) were added to each well using a CyBio FeliX liquid handling instrument. The plate was shaken on a plate shaker for three min before incubating the reaction mixtures at 37° C. for 20 h. Basel RPMI 1640 medium (supplemented with L-glutamine) was then added to each well (25 uL per well) prior to liberating plasma from each sample by centrifugation (450×g, 5 min, ambient temperature). Treated plasma samples (3 uL) were subsequently transferred to individual wells of a white, shallow, 384-well ProxiPlate (Perkin Elmer) using the FeliX liquid handling instrument and their interleukin 6 levels were measured using AlphaLISA technology as described by the manufacturer, PerkinElmer. Data analyses software was used to determine compound EC50 values where the baseline was established using average DMSO values and 100% induction established using reference compound values at the highest concentration tested. EC50's can be determined with software such as Graphpad Prism™.
(Bead proximity is the source of the signal in Alpha formats.)

Experiment [3] concerns IFN-α. As to conditions: fold lower potency vs corresponding purine-8-one compound; cited from earlier work.

Chain of human TLR7 (Q9NYK1 27-1049): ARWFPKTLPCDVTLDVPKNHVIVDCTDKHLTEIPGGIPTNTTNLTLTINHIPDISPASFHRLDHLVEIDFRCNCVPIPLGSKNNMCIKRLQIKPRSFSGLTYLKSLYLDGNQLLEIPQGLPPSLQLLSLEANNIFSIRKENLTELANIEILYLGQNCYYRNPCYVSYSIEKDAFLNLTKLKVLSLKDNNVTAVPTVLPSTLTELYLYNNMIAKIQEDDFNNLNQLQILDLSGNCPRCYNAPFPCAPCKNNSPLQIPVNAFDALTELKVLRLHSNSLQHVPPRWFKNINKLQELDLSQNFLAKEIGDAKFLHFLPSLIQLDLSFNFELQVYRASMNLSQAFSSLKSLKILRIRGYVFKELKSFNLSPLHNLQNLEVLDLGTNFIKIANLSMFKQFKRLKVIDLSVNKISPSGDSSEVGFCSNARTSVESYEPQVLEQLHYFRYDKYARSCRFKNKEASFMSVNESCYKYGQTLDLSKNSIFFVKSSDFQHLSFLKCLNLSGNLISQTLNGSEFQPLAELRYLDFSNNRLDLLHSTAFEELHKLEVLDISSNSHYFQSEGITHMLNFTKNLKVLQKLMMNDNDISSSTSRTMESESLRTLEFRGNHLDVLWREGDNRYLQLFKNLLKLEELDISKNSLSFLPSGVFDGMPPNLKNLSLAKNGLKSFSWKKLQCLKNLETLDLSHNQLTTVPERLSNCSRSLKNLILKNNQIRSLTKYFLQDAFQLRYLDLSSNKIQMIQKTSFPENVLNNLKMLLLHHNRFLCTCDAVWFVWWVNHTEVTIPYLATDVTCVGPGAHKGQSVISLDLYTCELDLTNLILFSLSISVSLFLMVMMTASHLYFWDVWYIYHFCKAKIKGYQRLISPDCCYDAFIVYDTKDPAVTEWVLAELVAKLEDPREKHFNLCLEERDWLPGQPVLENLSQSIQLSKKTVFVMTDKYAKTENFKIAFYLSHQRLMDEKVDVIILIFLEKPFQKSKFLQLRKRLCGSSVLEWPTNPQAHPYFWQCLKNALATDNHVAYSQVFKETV

Usually EC50 stands for the concentration giving half of the maximal effect. Take `CCCCOc1nc(N)c2nc(O)n(Cc3cnc(CO)cn3)c2n1` [Compound 6]: the 50% effective concentration (EC50) in experiment [1] came out at 288 nM. On the same count and under the same terms, next, `CCCCOc1nc(N)c2nc(O)n(Cc3ccccc3)c2n1` [Compound B, reference compound]: 470 nM.

For the molecule `CCCCOc1nc(N)c2nc(O)n(Cc3cnc(CNCc4ccncc4)cn3)c2n1` [Ia-01], the results for the EC50 in experiment [2] and in experiment [1] were 1000 nM and 330 nM, respectively. As for `CCCCOc1nc(N)c2nc(O)n(Cc3cnc(CNCC4COC4)cn3)c2n1` [Ia-02], the concentration for a half-maximal effect (EC50) in experiment [1] amounted to 11200 nM. As to `CCCCOc1nc(N)c2nc(O)n(Cc3cnc(CNCc4ccccc4)cn3)c2n1` [Ia-03], the 50% effective concentration (EC50) in experiment [2] is 1000 nM; in experiment [1], 180 nM. Turning to `CCCCOc1nc(N)c2nc(O)n(Cc3cnc(CNCCOC)cn3)c2n1` [Ia-04], the values for the EC50 in experiment [2] and in experiment [1] were 600 nM and 310 nM, respectively. Consider `CCCCOc1nc(N)c2nc(O)n(Cc3cnc(CNC4CC4)cn3)c2n1` [Ia-05], for which the EC50 in experiment [2] came to 360 nM; in experiment [1] it was 140 nM. For `CCCCOc1nc(N)c2nc(O)n(Cc3cnc(CNC(C)C)cn3)c2n1` [Ia-06] the same measures were 210 nM and 83 nM. With `CCCCOc1nc(N)c2nc(O)n(Cc3cnc(CNC4COC4)cn3)c2n1` [Ia-07], the 50% effective concentration (EC50) stood at 1000 nM in experiment [2] and 490 nM in experiment [1]. Taken in the same sequence, the figures for `CCCCOc1nc(N)c2nc(O)n(Cc3cnc(CNC4CCC4)cn3)c2n1` [Ia-08] were 220 nM and 24 nM. For `CCCCNCc1cnc(Cn2c(O)nc3c(N)nc(OCCCC)nc32)cn1` [Ia-09] the same measures were 420 nM and 89 nM.

On to `CCCCOc1nc(N)c2nc(O)n(Cc3cnc(CNC)cn3)c2n1` [Ia-10], for which the EC50 was 570 nM in experiment [2] and 290 nM in experiment [1].

For the molecule `CCCCNCc1ccc(Cn2c(O)nc3c(N)nc(OCCCC)nc32)nc1` [Ib-01], the EC50 in experiment [2] was found to be 77 nM; in experiment [1] it was 15 nM. Turning to `CCCCOc1nc(N)c2nc(O)n(Cc3ccc(CNCCOC)cn3)c2n1` [Ib-02], the half-maximal effective concentration (EC50) in experiment [2] came to 110 nM; in experiment [1], 28 nM. Taken in the same sequence, the figures for `CCCCOc1nc(N)c2nc(O)n(Cc3ccc(CNC4CC4)cn3)c2n1` [Ib-03] were 62 nM and 18 nM. Taken in the same sequence, the figures for `CCCCOc1nc(N)c2nc(O)n(Cc3ccc(CNC4CCC4)cn3)c2n1` [Ib-04] were 78 nM and 12 nM. For `CCCCOc1nc(N)c2nc(O)n(Cc3ccc(CNCCCN)cn3)c2n1` [Ib-05] the same measures were 260 nM and 62 nM. Molecule `CCCCOc1nc(N)c2nc(O)n(Cc3ccc(CNCc4ccccc4)cn3)c2n1` [Ib-06] showed a 50% effective concentration (EC50) in experiment [2] of 190 nM. For the molecule `CCCCOc1nc(N)c2nc(O)n(Cc3ccc(CNCc4ccc(N)cc4)cn3)c2n1` [Ib-07], the results for the 50% effective concentration (EC50) in experiment [2] and in experiment [1] were 100 nM and 41 nM, respectively. For `CCCCOc1nc(N)c2nc(O)n(Cc3ccc(CNCCCOCCOCCOCCCNC(=O)OC(C)(C)C)cn3)c2n1` [Ib-08] the same measures were 330 nM and 47 nM. As for `CCCCNCc1ccc(Cn2c(O)nc3c(N)nc(OCCCC)nc32)cn1` [Ic-01], the 50% effective concentration (EC50) stood at 26 nM in experiment [2] and 4.8 nM in experiment [1]. As to `CCCCOc1nc(N)c2nc(O)n(Cc3ccc(CNCCOC)nc3)c2n1` [Ic-02], in experiment [1], the EC50 is 9 nM. As to `CCCCOc1nc(N)c2nc(O)n(Cc3ccc(CNC4CC4)nc3)c2n1` [Ic-03], the figures for the half-maximal effective concentration (EC50) in experiment [2] and in experiment [1] were 14 nM and 5.3 nM, respectively. As for `CCCCOc1nc(N)c2nc(O)n(Cc3ccc(CNCCCN)nc3)c2n1` [Ic-05], the values for the 50% effective concentration (EC50) in experiment [2] and in experiment [1] were 28 nM and 14 nM, respectively. For `CCCCOc1nc(N)c2nc(O)n(Cc3ccc(CNCc4ccccc4)nc3)c2n1` [Ic-06], the EC50 in experiment [2] was 180 nM. Take `CCCCOc1nc(N)c2nc(O)n(Cc3ccc(CNCc4ccc(N)cc4)nc3)c2n1` [Ic-07]: the half-maximal effective concentration (EC50) in experiment [2] came out at 20 nM; in experiment [1] it was 11 nM. Taken in the same sequence, the figures for `CCCCOc1nc(N)c2nc(O)n(Cc3ccc(CNCCCOCCOCCOCCCNC(=O)OC(C)(C)C)nc3)c2n1` [Ic-08] were 150 nM and 23 nM. As to `CCCCCCNCc1ccc(Cn2c(O)nc3c(N)nc(OCCCC)nc32)cn1` [Ic-09], it took 37 nM to reach a half-maximal effect in experiment [2] (EC50). On to `CCCCOc1nc(N)c2nc(O)n(Cc3ccc(CNCCC)nc3)c2n1` [Ic-10], for which the EC50 was found to be 27 nM in experiment [2] and 6.1 nM in experiment [1]. `CCCCOc1nc(N)c2nc(O)n(Cc3ccc(CNC4CCCC4)nc3)c2n1` [Ic-11]: the EC50 in experiment [2] was determined as 23 nM. For the molecule `CCCCOc1nc(N)c2nc(O)n(Cc3ccc(CN4CCC(N)CC4)nc3)c2n1` [Ic-12], the concentration for a half-maximal effect (EC50) in experiment [2] stood at 13 nM.

Regarding `CCCCOc1nc(N)c2nc(O)n(Cc3ccc(CN4CCC(CN)CC4)nc3)c2n1` [Ic-13], the EC50 in experiment [2] worked out at 11 nM.

For the molecule `CCCCOc1nc(N)c2c(n1)N(Cc1cccc(CN3CCCC3)c1)CC(=O)N2` [Vesatolimod, vesatolimod], the “potency less than that of the corresponding purine-8-one compound, as measured by IFN-α induction” value in experiment [3] is listed as 100 ×.
